Reference: ChEMBL document CHEMBL3272125, “Antiprotozoal thiazoles. 2. 2-(5-Nitro-2-furyl-, thiazolyl-, and 1-methylimidazolyl-)thiazoles” (J Med Chem, 1977)

What was measured:
Trypanosoma cruzi [1] = assay: Antiprotozoal activity against Trypanosoma cruzi BH infected in CFW mouse assessed as increase in host mean survival time at 100 mg/kg, ip administered daily for 5 days starting 4 hrs post-parasite infection (reference value: 14 +/- 1 days); type: functional; conditions: route intraperitoneal
Trypanosoma cruzi [2] = assay: Antiprotozoal activity against Trypanosoma cruzi BH infected in CFW mouse assessed as increase in host mean survival time at 50 mg/kg, ip administered daily for 5 days starting 4 hrs post-parasite infection (reference value: 14 +/- 1 days); type: functional; conditions: route intraperitoneal
Trypanosoma cruzi [3] = assay: Antiprotozoal activity against Trypanosoma cruzi BH infected in CFW mouse assessed as increase in host mean survival time at 25 mg/kg, ip administered daily for 5 days starting 4 hrs post-parasite infection (reference value: 14 +/- 1 days); type: functional; conditions: route intraperitoneal
Trypanosoma cruzi [4] = assay: Antiprotozoal activity against Trypanosoma cruzi BH infected in CFW mouse assessed as increase in host mean survival time at 10 mg/kg, ip administered daily for 5 days starting 4 hrs post-parasite infection (reference value: 14 +/- 1 days); type: functional; conditions: route intraperitoneal
Trypanosoma cruzi [5] = assay: Antiprotozoal activity against Trypanosoma cruzi BH infected in CFW mouse assessed as increase in host mean survival time at 5 mg/kg, ip administered daily for 5 days starting 4 hrs post-parasite infection (reference value: 14 +/- 1 days); type: functional; conditions: route intraperitoneal
Trypanosoma cruzi [6] = assay: Antiprotozoal activity against Trypanosoma cruzi BH infected in CFW mouse assessed as increase in host mean survival time at 200 mg/kg, po administered daily for 5 days starting 4 hrs post-parasite infection (reference value: 14 +/- 1 days); type: functional
Trypanosoma cruzi [7] = assay: Antiprotozoal activity against Trypanosoma cruzi BH infected in CFW mouse assessed as increase in host mean survival time at 100 mg/kg, po administered daily for 5 days starting 4 hrs post-parasite infection (reference value: 14 +/- 1 days); type: functional
Trypanosoma cruzi [8] = assay: Antiprotozoal activity against Trypanosoma cruzi BH infected in CFW mouse assessed as increase in host mean survival time at 50 mg/kg, po administered daily for 5 days starting 4 hrs post-parasite infection (reference value: 14 +/- 1 days); type: functional
Trypanosoma cruzi [9] = assay: Antiprotozoal activity against Trypanosoma cruzi BH infected in CFW mouse assessed as increase in host mean survival time at 25 mg/kg, po administered daily for 5 days starting 4 hrs post-parasite infection (reference value: 14 +/- 1 days); type: functional
[10] = Acute toxicity in ip dosed CFW mouse administered daily for 5 days; type: organism-based; conditions: in vivo
[11] = Acute toxicity in po dosed CFW mouse administered daily for 5 days; type: organism-based; conditions: in vivo
Trypanosoma cruzi [12] = assay: Antiprotozoal activity against Trypanosoma cruzi BH infected in CFW mouse assessed as increase in host mean survival time at 10 mg/kg, po administered daily for 5 days starting 4 hrs post-parasite infection (reference value: 14 +/- 1 days); type: functional
Trypanosoma cruzi [13] = assay: Antiprotozoal activity against Trypanosoma cruzi BH infected in CFW mouse assessed as increase in host mean survival time at 5 mg/kg, po administered daily for 5 days starting 4 hrs post-parasite infection (reference value: 14 +/- 1 days); type: functional
Trypanosoma cruzi [14] = assay: Antiprotozoal activity against Trypanosoma cruzi Y infected in CFW mouse assessed as increase in host mean survival time at 25 mg/kg, po administered daily for 10 days starting 4 hrs post-parasite infection; type: functional
Trypanosoma cruzi [15] = assay: Antiprotozoal activity against Trypanosoma cruzi Y infected in CFW mouse assessed as increase in host mean survival time at 10 mg/kg, po administered daily for 10 days starting 4 hrs post-parasite infection; type: functional
Trypanosoma cruzi [16] = assay: Antiprotozoal activity against Trypanosoma cruzi Y infected in CFW mouse assessed as increase in host mean survival time at 5 mg/kg, po administered daily for 10 days starting 4 hrs post-parasite infection; type: functional
Trypanosoma cruzi [17] = assay: Antiprotozoal activity against Trypanosoma cruzi Peru infected in CFW mouse assessed as increase in host mean survival time at 25 mg/kg, po administered daily for 10 days starting 4 hrs post-parasite infection; type: functional
Trypanosoma cruzi [18] = assay: Antiprotozoal activity against Trypanosoma cruzi Peru infected in CFW mouse assessed as increase in host mean survival time at 10 mg/kg, po administered daily for 10 days starting 4 hrs post-parasite infection; type: functional
Trypanosoma cruzi [19] = assay: Antiprotozoal activity against Trypanosoma cruzi Peru infected in CFW mouse assessed as increase in host mean survival time at 5 mg/kg, po administered daily for 10 days starting 4 hrs post-parasite infection; type: functional
Trypanosoma cruzi [20] = assay: Antiprotozoal activity against high myocardial tissue infiltration leishmanial form of Trypanosoma cruzi BHC/10 infected in CFW mouse assessed as increase in host mean survival time at 25 mg/kg, po administered daily for 10 days starting 4 hrs post-parasite infection; type: functional
Trypanosoma cruzi [21] = assay: Antiprotozoal activity against high myocardial tissue infiltration leishmanial form of Trypanosoma cruzi BHC/10 infected in CFW mouse assessed as increase in host mean survival time at 10 mg/kg, po administered daily for 10 days starting 4 hrs post-parasite infection; type: functional
Trypanosoma cruzi [22] = assay: Antiprotozoal activity against high myocardial tissue infiltration leishmanial form of Trypanosoma cruzi BHC/10 infected in CFW mouse assessed as increase in host mean survival time at 5 mg/kg, po administered daily for 10 days starting 4 hrs post-parasite infection; type: functional

| SMILES | MST (Trypanosoma cruzi [1]) [days] | MST (Trypanosoma cruzi [2]) [days] | MST (Trypanosoma cruzi [3]) [days] | MST (Trypanosoma cruzi [4]) [days] | MST (Trypanosoma cruzi [5]) [days] | MST (Trypanosoma cruzi [6]) [days] | MST (Trypanosoma cruzi [7]) [days] | MST (Trypanosoma cruzi [8]) [days] | MST (Trypanosoma cruzi [9]) [days] | LD50 at 120 h [10] [mg/kg] | LD50 at 120 h [11] [mg/kg] | MST (Trypanosoma cruzi [12]) [days] | MST (Trypanosoma cruzi [13]) [days] | other results |
| --- | --- | --- | --- | --- | --- | --- | --- | --- | --- | --- | --- | --- | --- | --- |
| O=[N+]([O-])c1ccc(-c2nc(/C=N/N3CCCCC3)cs2)o1 | 60 | 60 | 42 | 3 | 0 | 32 | 39 | 8 | 0 | > 800 | > 1600 | – | – | – |
| O=[N+]([O-])c1ccc(-c2nc(/C=N/N3CCCCCC3)cs2)o1 | 39 | 7 | 4 | – | – | 2 | 0 | – | – | > 800 | > 1600 | – | – | – |
| O=[N+]([O-])c1ccc(-c2nc(/C=N/N3CCOCC3)cs2)o1 | 60 | 60 | 60 | 27 | 0 | 60 | 60 | 41 | 19.5 | > 800 | > 1600 | 0 | 0 | – |
| O=[N+]([O-])c1ccc(-c2nc(/C=N/N3CCSCC3)cs2)o1 | 60 | 60 | 18 | 0 | 0 | 18 | 4 | 0 | – | > 800 | > 1600 | – | – | – |
| O=[N+]([O-])c1ccc(-c2nc(/C=N/N3CCS(=O)(=O)CC3)cs2)o1 | 60 | 44 | 18.5 | 5 | 0 | 5 | 3 | 7 | 6 | > 800 | > 1600 | 0 | – | – |
| O=[N+]([O-])c1cnc(-c2nc(/C=N/N3CCCCC3)cs2)s1 | 0 | – | – | – | – | 0 | – | – | – | > 800 | > 1600 | – | – | – |
| O=[N+]([O-])c1cnc(-c2nc(/C=N/N3CCOCC3)cs2)s1 | 4 | – | – | – | – | 0 | – | – | – | > 800 | > 1600 | – | – | – |
| O=[N+]([O-])c1cnc(-c2nc(/C=N/N3CCSCC3)cs2)s1 | 4 | 3 | 0 | – | – | 1 | 0 | – | – | > 800 | > 1600 | – | – | – |
| Cn1c([N+](=O)[O-])cnc1-c1nc(/C=N/N2CCOCC2)cs1 | 60 | 7 | 4 | 0 | – | – | – | 0 | 0 | > 800 | > 1600 | – | – | – |
| Cn1c([N+](=O)[O-])cnc1-c1nc(/C=N/N2CCS(=O)(=O)CC2)cs1 | 60 | 60 | 60 | 60 | 18.5 | 60 | 60 | 60 | 60 | > 800 | > 1600 | 14 | 15 | MST (Trypanosoma cruzi [14]): 60 days; MST (Trypanosoma cruzi [15]): 60 days; MST (Trypanosoma cruzi [16]): 37 days; MST (Trypanosoma cruzi [17]): 60 days; MST (Trypanosoma cruzi [18]): 60 days; MST (Trypanosoma cruzi [19]): 35 days; MST (Trypanosoma cruzi [20]): 22 days; MST (Trypanosoma cruzi [21]): 12 days; MST (Trypanosoma cruzi [22]): 4 days |
| O=[N+]([O-])c1ccc(-c2nc(/C=N/N3CCOCC3)cs2)s1 | 60 | 27 | 12 | 0 | 0 | 60 | 0 | 0 | 0 | > 800 | > 1600 | 0 | 0 | – |
| CC1CS(=O)(=O)CCN1/N=C/c1ccc([N+](=O)[O-])o1 (stereo unspecified) [NIFURTIMOX] | 60 | 60 | 60 | 60 | 2.5 | 60 | 60 | 60 | 60 | – | – | 4 | 0 | MST (Trypanosoma cruzi [14]): 40 days; MST (Trypanosoma cruzi [15]): 8 days; MST (Trypanosoma cruzi [16]): 0 days; MST (Trypanosoma cruzi [17]): 60 days; MST (Trypanosoma cruzi [18]): 60 days; MST (Trypanosoma cruzi [19]): 0 days; MST (Trypanosoma cruzi [20]): 6.5 days; MST (Trypanosoma cruzi [21]): 5.5 days; MST (Trypanosoma cruzi [22]): 3 days |
